Key:
Green foxtail = experiment: Test D green foxtail; type: in vivo; settings: Postemergence, 0 to 100 scale, 0 no injury, 100 complete control
[1] = tested on: Panicum dichotomiflorum (PANDI); experiment: Test F preemergence, alone and in mixture with rimsulfuron, PANDI; type: in vivo; settings: 21 days after treatment, 0-100 scale
Description: (§1) Abutilon theophrasti (ABUTH), Chenopodium album (CHEAL), Amaranthus rudis (AMATA), Setaria faberii (SETFA), Panicum dichotomiflorum (PANDI), and Digitaria sanguinalis (DIGSA) were grown from seed in pots of an artificial potting mixture in a greenhouse. Compounds of the present invention were applied at 70 and 105 g ai/ha preemergence. Rimsulfuron was applied at 8.8 and 17.5 g ai/ha. Mixtures of the compounds of the present invention and rimsulfuron were also applied.
(§2) Following application, the plants were maintained by watering as needed. A fertilizer solution of Peter's 20-20-20 (10 pounds/5 gallons of water) plus Sprint 330, a Iron Chelate micronutrient, (113.5 grams/5 gallons of water) was injected into the water with an Anderson fertilizer injection system to provide approximately 219 ppm of nitrogen with each watering. Artificial lighting was used to supplement natural light to produce a 14 hour photoperiod and: an additional one hour light period was used between 1:00 am to 2:00 am for a night interruption. Greenhouse temperatures were targeted for 27° C. in the day and 21° C. at night. At 21 days after treatment, all plants were evaluated for injury as compared to control plants that were sprayed only with non-phytotoxic solvent.
(§3) Colby's equation was used to calculate the expected additive herbicidal effect of the mixtures of Compound 21 and the mixture partners listed above. […]

goosegrass = experiment: Test D goosegrass; type: in vivo, Eleusine indica; settings: Postemergence, 0 to 100 scale
[2] = tested on: Digitaria sanguinalis (DIGSA); experiment: Test F preemergence, alone and in mixture with rimsulfuron, DIGSA; type: in vivo; settings: 21 days after treatment, 0-100 scale
Description: as §1, §2, §3

pitted morningglory = experiment: Test D pitted morningglory; type: in vivo, Ipomoea lacunosa; settings: Postemergence, 0 to 100 scale
guineagrass = experiment: Test D guineagrass; type: in vivo, Panicum maximum; settings: Postemergence, 0 to 100 scale
Amaranthus rudis (AMATA) = experiment: Test F preemergence, alone and in mixture with rimsulfuron, AMATA; type: in vivo; settings: 21 days after treatment, 0-100 scale
Description: as §1, §2, §3

certain weeds = experiment: Test F overall statement on synergism with rimsulfuron (Colby's equation); type: in vivo; settings: combinations with rimsulfuron, preemergence
Description: as §2, with “Abutilon theophrasti (ABUTH), Chenopodium album (CHEAL), Amaranthus rudis (AMATA), Setaria […]), Panicum dichotomiflorum (PANDI), and Digitaria sanguinalis (DIGSA) were grown from seed in pots of an artificial potting mixture in a greenhouse. Compounds of the present invention were applied at 70 and 105 g ai/ha preemergence. Rimsulfuron was applied at 8.8 and 17.5 g ai/ha. Mixtures of the compounds of the present invention and rimsulfuron were also applied. Following” for “Following”, “solvent. […] Colby's equation was used to calculate the expected additive herbicidal effect of the mixtures of Compound 21 and the mixture partners listed above. […]” for “solvent.”

bermuda-grass = experiment: Test D bermudagrass; type: in vivo, Cynodon dactylon; settings: Postemergence, 0 to 100 scale
Spanishneedles = experiment: Test D Spanishneedles; type: in vivo, Bidens bipinnata; settings: Postemergence, 0 to 100 scale
Alexandergrass = experiment: Test D Alexandergrass; type: in vivo, Brachiaria plantaginea; settings: Postemergence, 0 to 100 scale
sandbur = experiment: Test D sandbur; type: in vivo, Cenchrus echinatus; settings: Postemergence, 0 to 100 scale
[3] = Alone: Cmpd. rate 70, Rimsulfuron 0
[4] = Alone: Cmpd. rate 105, Rimsulfuron 0
[5] = Rate 16 g/ha, 0 no injury, 100 complete control
[6] = Rate 32 g/ha, 0 no injury, 100 complete control
[7] = Rate 64 g/ha, 0 no injury, 100 complete control
[8] = Rate 125 g/ha, 0 no injury, 100 complete control

`CC(C)N(C(=O)n1oc(=O)n(C(C)C)c1=O)c1ccc(F)cc1` [Compound 131] was tested, and the “Plant response rating, Green foxtail” value (Green foxtail; Rate 64 g/ha) was 100, the “Plant response rating, Green foxtail” value (Green foxtail; Rate 125 g/ha) was 100 and the “PANDI Observed” value [1, 3] was 100%. The “PANDI Observed” value [1, 4] was 95%, the “Plant response rating, Goosegrass” value (goosegrass; [5]) was 90 and the “Plant response rating, Goosegrass” value (goosegrass; [6]) was 100. For the same compound, the “Plant response rating, Goosegrass” value (goosegrass; [7]) was 100, the “Plant response rating, Goosegrass” value (goosegrass; [8]) was 100 and the “Plant response rating, Goosegrass” value (goosegrass; Rate 250 g/ha) was 100. The “DIGSA Observed” value [2, 3] was 100%, the “DIGSA Observed” value [2, 4] was 100% and the “Plant response rating, P. morninglory” value (pitted morningglory; [5]) was 0. The “Plant response rating, P. morninglory” value (pitted morningglory; [6]) was 0, the “Plant response rating, P. morninglory” value (pitted morningglory; [7]) was 0 and the “Plant response rating, P. morninglory” value (pitted morningglory; [8]) was 0. The “Plant response rating, P. morninglory” value (pitted morningglory; Rate 250 g/ha) was 100, the “Plant response rating, Guineagrass” value (guineagrass; [5]) was 0 and the “Plant response rating, Guineagrass” value (guineagrass; [6]) was 20. For the same compound, the “Plant response rating, Guineagrass” value (guineagrass; [7]) was 100, the “Plant response rating, Guineagrass” value (guineagrass; [8]) was 100 and the “Plant response rating, Guineagrass” value (guineagrass; Rate 250 g/ha) was 100. The “AMATA Observed” value (Amaranthus rudis (AMATA); [3]) was 50%, the “AMATA Observed” value (Amaranthus rudis (AMATA); [4]) was 40% and the “Weed control of combination with rimsulfuron compared with expectation from Colby's equation” value (certain weeds) was “better control of certain weeds than expected”. For the same compound, the “Plant response rating, Bermudagrass” value (bermuda-grass; [5]) was 30, the “Plant response rating, Bermudagrass” value (bermuda-grass; [6]) was 90 and the “Plant response rating, Bermudagrass” value (bermuda-grass; [7]) was 100. The “Plant response rating, Bermudagrass” value (bermuda-grass; [8]) was 100, the “Plant response rating, Bermudagrass” value (bermuda-grass; Rate 250 g/ha) was 100 and the “Plant response rating, Spanishneedles” value (Spanishneedles; [5]) was 0. For the same compound, the “Plant response rating, Spanishneedles” value (Spanishneedles; [6]) was 0, the “Spanishneedles plant response rating” value (Spanishneedles; [7]) was 0 and the “Spanishneedles plant response rating” value (Spanishneedles; [8]) was 70. The “Plant response rating, Spanishneedles” value (Spanishneedles; Rate 250 g/ha) was 60, the “Plant response rating, Alexandergrass” value (Alexandergrass; [5]) was 0 and the “Plant response rating, Alexandergrass” value (Alexandergrass; [6]) was 50. The “Plant response rating, Alexandergrass” value (Alexandergrass; [7]) was 100, the “Plant response rating, Alexandergrass” value (Alexandergrass; [8]) was 100 and the “Plant response rating, Alexandergrass” value (Alexandergrass; Rate 250 g/ha) was 100. The “Plant response rating, Sandbur” value (sandbur; [5]) was 0, the “Plant response rating, Sandbur” value (sandbur; [6]) was 0 and the “Sandbur plant response rating” value (sandbur; [7]) was 100. The “Sandbur plant response rating” value (sandbur; [8]) was 100 and the “Plant response rating, Sandbur” value (sandbur; Rate 250 g/ha) was 100.
